We go through five compounds from patent US9150495B2, “Polyamine transporter selective compounds as anti cancer agents” (University of Central Florida Research Foundation, Inc., priority 2007, dated 2015).

The structures appear in SMILES notation. Where a name gives a salt, the structure may show the parent alone.

The test system of one experiment is CHO-MG cells. Nature of the experiment: CHO-MG cytotoxicity (PAT-deficient mutant cells). As to conditions: Cricetulus griseus, no PAT activity, read-out: CHOMG IC50. The format is cell-based, Chinese hamster. The protocol:
Chinese hamster ovary cells which are chemically mutated to be polyamine transport-deficient will be referred to as the CHO-MG cell line. […] The PAT targeting selectivity was determined using a Chinese hamster cell assay. The CHO wild type cells have active polyamine transport activity and therefore should be very susceptible to the polyamine conjugate and give low IC50 values. […] The lower the value the more cytotoxic the drug is to that cell type. In contrast, the mutant CHO-MG cells, which have no PAT activity are not as sensitive to the polyamine conjugate (which is unable to enter these cells via the defective PAT) and give higher IC50 values. We express these as a ratio of the IC50 value in CHOMG/IC50 value in CHO. The higher the ratio the more PAT selective is the polyamine conjugate drug. […] Cytotoxicity experiments were also performed in murine leukemia cells (L1210, Table 3) with and without the presence of difluoromethylornithine (DFMO), a known inhibitor of ornithine decarboxylase (the enzyme responsible for polyamine biosynthesis). Typically, when one blocks the ability of cells to synthesize polyamines, the cells respond by increasing their import of extracellular polyamines via PAT. Therefore, if our drugs are PAT-selective we should see a lowering of their respective IC50 values in the presence of DFMO, a molecule which facilitates the drug's import. […] Ki values indicate the binding affinity of the compounds for the PAT. Using competition experiments with radiolabeled spermidine, we were able to rank the binding affinity of the compounds for the PAT. Low Ki values mean the compound has a high binding affinity for the PAT.

Experiment [1] has as its system L1210 cells. In words: L1210 cytotoxicity. The format is cell-based. As to conditions: Mus musculus, without DFMO. The method, then: (§1) L1210 cells are mouse leukemia cells and are a standard well used benchmark for evaluating cytotoxicity of new drug systems, especially polyamine containing drugs.
(§2) Cytotoxicity experiments were also performed in murine leukemia cells (L1210, Table 3) with and without the presence of difluoromethylornithine (DFMO), a known inhibitor of ornithine decarboxylase (the enzyme responsible for polyamine biosynthesis). Typically, when one blocks the ability of cells to synthesize polyamines, the cells respond by increasing their import of extracellular polyamines via PAT. Therefore, if our drugs are PAT-selective we should see a lowering of their respective IC50 values in the presence of DFMO, a molecule which facilitates the drug's import. […] Ki values indicate the binding affinity of the compounds for the PAT. Using competition experiments with radiolabeled spermidine, we were able to rank the binding affinity of the compounds for the PAT. Low Ki values mean the compound has a high binding affinity for the PAT.

In another experiment the test system is CHO cells. Nature of the experiment: CHO wild type cytotoxicity (active polyamine transport). In kind it is cell-based, Chinese hamster. To be noted: for IC50: Cricetulus griseus, CHO wild type cells, active PAT; for CHOMG/CHO IC50 Ratio: IC50 in CHOMG / IC50 in CHO, PAT selectivity. The method, then: Chinese hamster ovary cells (CHO cells) have an active polyamine transporter. This cell type is very susceptible to drugs which use the polyamine transporter system to gain access to cells (i.e. polyamine conjugates). The PAT targeting selectivity was determined using a Chinese hamster cell assay. The CHO wild type cells have active polyamine transport activity and therefore should be very susceptible to the polyamine conjugate and give low IC50 values. […] The lower the value the more cytotoxic the drug is to that cell type. In contrast, the mutant CHO-MG cells, which have no PAT activity are not as sensitive to the polyamine conjugate (which is unable to enter these cells via the defective PAT) and give higher IC50 values. We express these as a ratio of the IC50 value in CHOMG/IC50 value in CHO. The higher the ratio the more PAT selective is the polyamine conjugate drug. […] Cytotoxicity experiments were also performed in murine leukemia cells (L1210, Table 3) with and without the presence of difluoromethylornithine (DFMO), a known inhibitor of ornithine decarboxylase (the enzyme responsible for polyamine biosynthesis). Typically, when one blocks the ability of cells to synthesize polyamines, the cells respond by increasing their import of extracellular polyamines via PAT. Therefore, if our drugs are PAT-selective we should see a lowering of their respective IC50 values in the presence of DFMO, a molecule which facilitates the drug's import. […] Ki values indicate the binding affinity of the compounds for the PAT. Using competition experiments with radiolabeled spermidine, we were able to rank the binding affinity of the compounds for the PAT. Low Ki values mean the compound has a high binding affinity for the PAT.

Experiment [2] has as its target polyamine transporter (PAT). In words: PAT binding affinity, competition with radiolabeled spermidine in L1210. Details: species or system mouse. To be noted: L1210 cells. The method, then:
“Ki value” reflects the affinity of the drug architecture for the polyamine transporter. The lower the value of the Ki, the higher the affinity of the drug for the polyamine transporter.
as §2

Experiment [3] concerns L1210 cells. In words: L1210 cytotoxicity in presence of DFMO. The format is cell-based, mouse. To be noted: in the presence of DFMO. The method, then: as §1, §2
The target of experiment [4] is Topoisomerase IIalpha (Topo IIa) (Homo sapiens, UniProt P11388). In words: Topo II kDNA decatenation assay (agarose gel). The format is biochemical. The method, then: Thus the linear polyamine-anthracene conjugates herein disclosed (e.g., compound 4) were evaluated as Topo II inhibitors. A well established in vitro Topo II assay (as used previously) allowed us to determine whether these new conjugates (previously described compound A and novel compound 4 of the present invention) have the ability to inhibit Topo II by preventing Topo IIa from decatenating (i.e., disentangling) kinetoplast DNA (kDNA).
A negative image of agarose gel electrophoresis is visualized under UV light. Drugs were incubated with kDNA (200 ng) and Topo IIa (4 units) in reaction buffer prior to loading onto the gel. Neg. Control (−): kDNA only; Pos. Control (+): kDNA+Topo II (without conjugate); Inhibitory Control (B, rightmost lane): Berenil (50 μM). All other lanes contain the corresponding conjugate at the listed μM concentrations. Positive Topo II activity is shown by the formation of nicked open circular (NOC) DNA (middle band) and covalently closed circular (CCC) DNA (bottom band). Inhibition is shown by the negative activity of Topo II where kDNA (top band) is not decatenated and remains in the well.
When kDNA was not incubated with drug and Topo II (negative control), no migration occurred on the gel and the kDNA remained in the well as expected, which was indicated by the single top band visualized in the well. When kDNA was incubated with Topo II in the absence of drug, the top band in the well disappeared completely while two bands representing the two decatenated products could be seen.

Sequence of Topoisomerase IIalpha (Topo IIa) (P11388 whole entry): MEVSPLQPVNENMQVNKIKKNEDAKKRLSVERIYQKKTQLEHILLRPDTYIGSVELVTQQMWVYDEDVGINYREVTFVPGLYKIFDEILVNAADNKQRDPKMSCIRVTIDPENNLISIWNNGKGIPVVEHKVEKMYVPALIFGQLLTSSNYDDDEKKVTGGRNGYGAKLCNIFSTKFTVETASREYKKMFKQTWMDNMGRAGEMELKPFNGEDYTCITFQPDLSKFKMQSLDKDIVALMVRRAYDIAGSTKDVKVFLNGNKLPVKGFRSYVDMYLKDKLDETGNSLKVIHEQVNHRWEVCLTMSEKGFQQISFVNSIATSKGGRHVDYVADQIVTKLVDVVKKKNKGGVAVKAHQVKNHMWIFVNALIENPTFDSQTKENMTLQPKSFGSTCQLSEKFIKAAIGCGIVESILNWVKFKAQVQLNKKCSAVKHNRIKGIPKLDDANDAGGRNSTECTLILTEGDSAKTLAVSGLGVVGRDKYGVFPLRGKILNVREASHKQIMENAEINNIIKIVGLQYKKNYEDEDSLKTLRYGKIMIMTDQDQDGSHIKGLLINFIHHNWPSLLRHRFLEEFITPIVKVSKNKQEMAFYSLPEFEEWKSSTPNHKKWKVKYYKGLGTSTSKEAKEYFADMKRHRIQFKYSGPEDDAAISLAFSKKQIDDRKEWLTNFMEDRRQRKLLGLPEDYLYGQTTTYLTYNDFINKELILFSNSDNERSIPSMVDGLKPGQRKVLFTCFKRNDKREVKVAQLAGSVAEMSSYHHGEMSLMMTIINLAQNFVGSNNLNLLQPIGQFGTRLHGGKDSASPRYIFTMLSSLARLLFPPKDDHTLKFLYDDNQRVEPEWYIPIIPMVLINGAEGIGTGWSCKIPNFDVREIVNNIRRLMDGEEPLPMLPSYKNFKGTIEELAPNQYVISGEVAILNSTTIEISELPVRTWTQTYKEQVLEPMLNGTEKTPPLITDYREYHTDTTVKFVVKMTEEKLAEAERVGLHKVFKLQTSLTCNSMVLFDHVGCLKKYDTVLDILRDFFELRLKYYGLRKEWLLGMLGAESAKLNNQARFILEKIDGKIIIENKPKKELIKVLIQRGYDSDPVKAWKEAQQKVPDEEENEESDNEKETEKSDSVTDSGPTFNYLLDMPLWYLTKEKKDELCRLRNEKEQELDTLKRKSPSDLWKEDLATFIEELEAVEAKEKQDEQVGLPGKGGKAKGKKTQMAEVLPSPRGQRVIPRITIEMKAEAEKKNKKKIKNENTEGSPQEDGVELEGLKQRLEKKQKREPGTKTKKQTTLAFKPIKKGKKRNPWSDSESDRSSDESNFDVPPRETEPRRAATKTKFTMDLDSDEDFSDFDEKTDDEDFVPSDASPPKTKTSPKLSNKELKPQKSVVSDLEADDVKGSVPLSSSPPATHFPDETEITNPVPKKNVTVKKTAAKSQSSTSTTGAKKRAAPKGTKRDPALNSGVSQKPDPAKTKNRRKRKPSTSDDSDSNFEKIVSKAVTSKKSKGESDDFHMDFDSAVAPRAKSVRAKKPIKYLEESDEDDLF

Regarding `Cl.NCCCCNCCCCNCc1ccc(CNCCCCNCCCCN)cc1` [Compound 10, N-(4-Amino-butyl)-N′-(4-{[4-(4-amino-butylamino)-butylamino]-methyl}-benzyl)-butane-1,4-diamine, Hydrochloride salt], the IC50 with CHO-MG cells was found to be 50200 ± 3800 nM; with L1210 cells [1], 160 ± 10 nM; with CHO cells it was 74 ± 10 nM; in the experiment with L1210 cells [3] (Mus musculus, L1210), 360 ± 30 nM. The “CHOMG/CHO IC50 Ratio” value in the experiment with CHO cells is on record as 677. Moreover, in experiment [2], the affinity corresponds to a Ki of 520 ± 110 nM.

Turning to `CC(=O)NCC(=O)O.CC(=O)NCC(=O)O.N=C(N)c1ccc(N=NNc2ccc(C(=N)N)cc2)cc1` [Berenil, reference compound], in experiment [4] (50 μM, inhibitory control), the “Topo II inhibition (kDNA remaining in well)” value is recorded as “good inhibition”.

Take `NCCCCNCCCCNCc1cc(CNCCCCNCCCCN)cc(CN(CCCCN)CCCCN)c1` [Compound 15, N-(4-Amino-butyl)-N-(3,5-bis-{[4-(4-amino-butylamino)-butylamino]-methyl}-benzyl)-butane-1,4-diamine, nona-Hydrochloride Salt]: the concentration for half-maximal inhibition (IC50) in the experiment with CHO-MG cells is over 500000 nM; in the experiment on L1210 cells [1] it was 122000 ± 8100 nM; in the experiment with CHO cells, over 500000 nM; with L1210 cells [3] it was 49300 ± 10000 nM. The same compound yielded a Ki in experiment [2] of 490 ± 20 nM.

Take `Cl.NCCCCNCCCCNCc1ccc(CNCCCCNCCCCN)c2ccccc12` [Compound 7, N-(4-Amino-butyl)-N′-(4-{[4-(4-amino-butylamino)-butylamino]-methyl}-naphthalen-1-ylmethyl)-butane-1,4-diamine, Hydrochloride salt]: the figures for the IC50 with CHO-MG cells, in the experiment with L1210 cells [1] and in the experiment on CHO cells were over 100000 nM, 250 ± 80 nM and 120 ± 30 nM, respectively. Moreover, the “CHOMG/CHO IC50 Ratio” value with CHO cells is on record as over 833. Moreover, the Ki in experiment [2] came to 170 ± 20 nM.

For the compound `Cl.NCCCCNCCCCNCc1c2ccccc2c(CNCCCCNCCCCN)c2ccccc12` [Compound 4, N-(4-Amino-butyl)-N′-(10-{[4-(4-amino-butylamino)-butylamino]-methyl}-anthracen-9-ylmethyl)-butane-1,4-diamine, Hydrochloride salt], the IC50 was over 100000 nM in the experiment with CHO-MG cells; 780 ± 70 nM with L1210 cells [1]; 45 ± 3 nM with CHO cells; 220 ± 80 nM in the experiment with L1210 cells [3] (Mus musculus, L1210). Moreover, the “CHOMG/CHO IC50 Ratio” value in the experiment on CHO cells (Hydrochloride salt) was over 2222. This compound also came in with a Ki in experiment [2] of 390 ± 50 nM. Also, the “Topo II inhibition (kDNA remaining undecatenated)” value in experiment [4] (5 μM, kDNA 200 ng, Topo IIa 4 units) is listed as “good inhibition”. In addition, the “Type of Topo II inhibition” value in experiment [4] (inhibition increased with drug concentration) is reported as “catalytic Topo-II inhibitors”.

Broadly, the IC50 is the concentration needed to halve the response being measured. As usually defined, the Ki is the dissociation constant of the complex between target and ligand, obtained from inhibition or displacement. The low end stands for a stronger hold on the target, the high end for a looser hold on the target.
